Laboratory results taken from ChEMBL document CHEMBL1134331, “New dermatological agents for the treatment of psoriasis” (J Med Chem, 2001).
One block for each molecule: values may come before it.

Key:
[1] = biological target: Inosine-5'-monophosphate dehydrogenase (IMPDH) (Homo sapiens, UniProt P20839+P12268); experiment: Inhibition of […] dehydrogenase (IMPDH); range 7-8 nM; format: protein assay
[2] = Inhibition of growth of T-cell lymphoblastoma; range 1-10 uM; format: functional
Homo sapiens = species on record: Homo sapiens; experiment: Inhibition of growth of human keratinocytes; format: functional
Vitamin D3 receptor = biological target: T1, Vitamin D3 receptor (Homo sapiens, UniProt P11473); experiment: Binding affinity to VDR receptor
T1 sequence (P11473 whole entry): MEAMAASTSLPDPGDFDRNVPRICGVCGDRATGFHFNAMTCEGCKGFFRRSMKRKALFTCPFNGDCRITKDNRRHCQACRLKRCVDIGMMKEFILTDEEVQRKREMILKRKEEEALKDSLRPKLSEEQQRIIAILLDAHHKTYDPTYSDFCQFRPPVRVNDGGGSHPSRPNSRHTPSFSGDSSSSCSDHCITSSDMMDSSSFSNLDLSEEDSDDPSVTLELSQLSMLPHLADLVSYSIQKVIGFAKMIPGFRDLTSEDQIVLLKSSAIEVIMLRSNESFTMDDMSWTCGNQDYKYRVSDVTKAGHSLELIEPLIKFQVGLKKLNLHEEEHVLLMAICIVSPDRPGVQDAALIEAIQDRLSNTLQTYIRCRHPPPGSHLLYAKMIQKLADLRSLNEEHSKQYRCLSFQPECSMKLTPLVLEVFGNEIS

[3] = Competitive inhibition of ATP binding

IC50 [1]: 7 nM
SMILES: COc1c(C)c2c(c(N)c1C/C=C1\CCCC1[C@H](C)C(=O)O)C(=O)OC2 (some centres undefined)

SMILES: C/C(O)=C(\C#N)C(=O)Nc1ccc(C(F)(F)F)cc1
Concentration [2]: 1 µM

SMILES: C=C1/C(=C\C=C2/CCC[C@]3(C)[C@@H]([C@H](C)/C=C/[C@@H](O)C4CC4)CC[C@@H]23)C[C@@H](O)C[C@@H]1O [CALCIPOTRIENE]
IC50 (Homo sapiens): 32 nM

Kd (Vitamin D3 receptor): 0.089 nM
SMILES: C=C1/C(=C\C=C2/CCC[C@]3(C)C([C@@H](C)CSc4ccc(C(C)(C)O)cc4)CC[C@@H]23)C[C@@H](O)C[C@@H]1O (some centres undefined)
IC50 (Homo sapiens): 0.28 nM

IC50 [1]: 7 nM
SMILES: COc1cc(NC(=O)Nc2cccc(CNC(=O)O[C@H]3CCOC3)c2)ccc1-c1cnco1 [MERIMEPODIB]

Kd (Vitamin D3 receptor): 0.073 nM
SMILES: C=C1/C(=C\C=C2/CCC[C@]3(C)C([C@@H](C)COc4ccc(C(C)(C)O)cc4)CC[C@@H]23)C[C@@H](O)C[C@@H]1O (some centres undefined)
IC50 (Homo sapiens): 0.11 nM

IC50 [3]: 0.025 nM
SMILES: COc1cc2ncnc(Nc3cccc(Br)c3)c2cc1OC
